Read-outs that look alike come from different tables or passages of the source. Where no end group is shown, it is not given here. [ ]: non-standard residue; d: D form. The star is where a group is joined. Lys(Me2) = CN(C)CCCC[C@H](N)C(=O)O; Myristyl = CCCCCCCCCCCCCC*
Experiments:
[1] = molecular target: T1, LSD1 (Homo sapiens, UniProt O60341)
[2] = test system: SARS-CoV-2; set-up: species or system golden Syrian Hamsters; conditions: hamster, in vivo
[3] = molecular target: T2, ACE2unmod and IMPα1 (Homo sapiens, UniProt P52292); type: cell-based; set-up: dose or concentration left out as unconfirmed; conditions: H1299 cells
T2 construct: endogenous in cells; host or cells: H1299

[4] = Hamster tolerance (animal safety) study; type: in vivo, golden Syrian Hamsters; conditions: escalating IP doses
Method: Female golden Syrian Hamsters (6-8 weeks) were obtained from Janiver Labs (Le Genest-Saint-Isle, France) and studies conducted by Oncodesign® Biotechnology (Dijon Cedex, France). For tolerance experiments, animals (3 per group) received escalating doses of P604 ACE2 peptide inhibitor or ACE2i peptide via intraperitoneal injection. Doses were escalated daily (day 1: 25 mg/kg, day 2: 50 mg/kg, day 3: 100 mg/kg) and animals monitored prior to culling on day 4. Animal viability, behaviour and rectal temperature were recorded every 2 hours over a 6 hour period post-administration and body weights were measured daily. For P604 ACE2 peptide inhibitor efficacy studies, animals (8 per group) were treated with vehicle (IP, daily day 0, 1 and 2) (Sodium chloride 0.9%, Osalia, Paris, France) or P604 ACE2 peptide inhibitor over a 2-day period via intravenous (IV, 15 mg/kg, day 0 once and day 1 twice, 8 hours apart) or intraperitoneal (IP, 100 mg/kg, daily Day 0, 1, 2) injection. For P604 ACE2 peptide inhibitor efficacy studies, animals were treated with vehicle or P604 ACE2 peptide inhibitor (30 mg/kg, IN, twice daily, Day 0, 1 8 hours apart).

[5] = test system: ACE2, LSD1; type: cell-based; conditions: Caco-2 cells
[6] = test system: SARS-Cov-2 induced lung pathology; set-up: species or system golden Syrian Hamsters; conditions: hamster, in vivo
[7] = test system: ACE2-importin complex; type: binding
[8] = test system: perforin and CD3; type: in vivo, golden Syrian Hamsters; conditions: hamster, IP or IV routes
[9] = test system: SARS-CoV-2 Spike protein; set-up: species or system golden Syrian Hamsters; conditions: hamster, in vivo
[10] = test system: ACE2, SARS-CoV-2 nucleocapsid and Spike proteins; type: cell-based
[11] = test system: SARS-CoV-2; set-up: species or system golden Syrian Hamsters; conditions: hamster, in vivo; remark: listed apart in the source
[12] = molecular target: T1, LSD1; experiment: In vitro LSD1 activity assay (demethylation of ACE2 peptide at lysine 31); type: biochemical
[13] = test system: SARS-CoV-2; type: cell-based
[14] = molecular target: ACE2 and SARS-CoV-2 Spike (Severe acute respiratory syndrome coronavirus 2, UniProt P0DTC2); type: cell-based
[15] = molecular target: T3, SARS-CoV-2 spike protein (Severe acute respiratory syndrome coronavirus 2, UniProt P0DTC2); type: cell-based
T3 construct: spike protein 51 (Glu14-Ser680) containing a poly-histidine tag at the C-terminus; poly-histidine (C)

[16] = test system: SARS-CoV-2; type: cell-based; remark: listed apart in the source

**Q.** For `NNCCc1ccccc1` [phenelzine], which “effect on ACE2 transcription” value [1] is on record?
**A.** Its value is “minimal effect”.

**Q.** What about the “expression and co-localization of LSD1 with ACE2 and TMRPSS2” value [1] of the same compound?
**A.** Its value is “abrogated”.

**Q.** With “Myristyl-TGIRDRKKKNKARS-OH (SMILES CCCCCCCCCCCCCCN[C@H](C(=O)NCC(=O)N[C@H](C(=O)N[C@@H](CCCNC(=N)N)C(=O)N[C@@H](CC(=O)O)C(=O)N[C@@H](CCCNC(=N)N)C(=O)N[C@@H](CCCCN)C(=O)N[C@@H](CCCCN)C(=O)N[C@@H](CCCCN)C(=O)N[C@@H](CC(N)=O)C(=O)N[C@@H](CCCCN)C(=O)N[C@@H](C)C(=O)N[C@@H](CCCNC(=N)N)C(=O)N[C@@H](CO)C(=O)O)[C@@H](C)CC)[C@@H](C)O) [P604]” as the compound, how does the “lung infectious titers (TCID50 assay)” value [2] read?
**A.** Its value is “reduced”.

**Q.** What about the “ACE2unmod-IMP1 interaction (DUOLINK)” value [3] of the same compound?
**A.** Its value is “significantly all but abrogated”.

**Q.** And the “toxicity in animal safety studies” value [4]?
**A.** The value was “minimal toxicity”.

**Q.** And the “PCC(r) of LSD1 and ACE2 (co-localisation)” value [5]?
**A.** Its value is “significantly abrogated”.

**Q.** What about the “ACE2 expression on the cell surface” value ([5]; 25 mM/50 mM) of the same compound?
**A.** The value was “de-stabilizes ACE2 expression on the cell surface”.

**Q.** And the “cell surface LSD1 expression” value ([5]; 25 mM/50 mM)?
**A.** Its value is “reducing cell surface LSD1 expression”.

**Q.** What about the “changes in the bronchioles or vessels (H&E)” value [6] of the same compound?
**A.** Its value is “minimal changes”.

**Q.** And the “mean cumulative histopathological scores” value [6]?
**A.** Its value is “substantially lower than the vehicle group”.

**Q.** What about the “inhibition of the ACE2-importin complex in vitro” value [7] of the same compound?
**A.** The value was “directly inhibiting the ACE2-importin complex”.

**Q.** And the “CD3+ cells expressing perforin in lung” value [8]?
**A.** The value was “induce more CD3+ cells to express perforin”.

**Q.** What about the “cells positive for perforin in lung” value [8] of the same compound?
**A.** Its value is “significantly induce higher cells positive for perforin”.

**Q.** What about the “overall intensity of Spike protein signal in positive cells” value [9] of the same compound?
**A.** The value was “significantly reduced”.

**Q.** And the “population of cells in bronchial lung sections positive for SARS-CoV-2 spike protein” value [9]?
**A.** The value was “significantly reduced”.

**Q.** What about the “expression of Spike protein of SARS-CoV-2” value [10] of the same compound?
**A.** The value was “significantly inhibit and downregulate”.

**Q.** And the “expression of host ACE2” value [10]?
**A.** Its value is “significantly inhibit and downregulate”.

**Q.** What about the “expression of nucleocapsid protein of SARS-CoV-2” value [10] of the same compound?
**A.** Its value is “significantly inhibit and downregulate”.

**Q.** And the “viral RNA in the lungs” value [11]?
**A.** The value was “Significant reductions”.

**Q.** And the “decrease in viral load normalized to the vehicle group” value ([11]; ip, 100 mg/kg)?
**A.** The value was 96%.

**Q.** And the “decrease in viral load normalized to the vehicle group” value ([11]; iv, 15 mg/kg)?
**A.** The value was 88%.

**Q.** Which “de-methylation at lysine 31 by LSD1” value [12] does the source give for “QAKTFLD{Lys(Me2)}FNHEAED (QAKTFLD[Lys(Me2)]FNHEAED) [ACE2me2]” here?
**A.** Its value is “efficiently de-methylated”.

**Q.** Which “reduction in viral load (infectious viral titers, TCID50)” value [13] does the source give for STIEEQAKTFLDK [ACE2-02] here?
**A.** Its value is 3.2 fold.

**Q.** What about the “interaction between ACE2 and spike protein (ACE2/spike complexes at the cell surface)” value [14] of the same compound?
**A.** Its value is “further disrupted”.

**Q.** And the “inhibition of Spike protein binding to the cell surface” value [15]?
**A.** Its value is “significantly inhibit”.

**Q.** What about the “decrease of viral RNA in infected cells” value [16] of the same compound?
**A.** Its value is 2 fold.

**Q.** What about the “reduction of infection (qRT-PCR) in cell culture supernatants” value [16] of the same compound?
**A.** Its value is 4.6 fold.

Reference: US20240352072A1, “NOVEL COMPOSITIONS AND METHODS FOR TREATING CORONAVIRUS INFECTIONS” (priority 2021, published 2024)
